One compound from patent publication US20050101542A1, “Combination therapy for controlling appetites” (Regents of the University of California, priority 2002, published 2005) can be followed below.

“And” between values parts separate entries of the source, which are not always exact repeats. Equal values may be shown once.

For one assay, the system named is PPAR-α-regulated genes. The assay is described as follows: Real time quantitative PCR of gene expression in mouse intestine and liver. In kind it is in vivo. Here is the method: Tissues were stored in RnaLater™ (Ambion), extracted total RNA with TRIzol™ (Invitrogen) and quantified it with Ribogreen™ (Molecular Probes). cDNA was synthesized by using SuperscriptII RNase H-reverse transcriptase (Invitrogen).
Reverse transcription of total RNA (2 μg) was performed using Oligo(dT)12-18 primer (0.2 μg) for 50 min at 42° C. Real Time Quantitative (RTQ) PCR was conducted using an ABI PRISM 7700 sequence detection system (Applied Biosystems). Primer/probe sets were designed using the Primer Express™ software and gene sequences available from the Genebank™ database. Primers and fluorogenic probes were synthesized by TIB (Adelphia). The primer/probe sequences for the mouse genes were:
RNA levels were normalized by using glyceraldehyde 3-phosphate dehydrogenase (GAPDH) as an internal standard. mRNA levels were measured by generating six-point serial standard curves using mouse total RNA. Estimates of relative mRNA abundance (in arbitrary units) were made by using the CT value (Schmittgen et al., 2000). Relative quantifications of RNAs of interest were made by using the 2^ΔCT formula, in which ΔCT was calculated by subtracting the CT value for GAPDH from the CT value for the gene of interest. This formula was validated for each primer/probe set by using six-point serial standard curves.

A short description of assay [1]: OEA for 2 weeks in obese Zucker rats: serum lipids, glucose, food intake, body weight. In kind it is in vivo, rat. The protocol:
Subchronic experiments. Male wild-type and PPARα null mice were fed with a very high-fat diet (60 kcal % fat; D12492; Research Diets, NJ). […] The mice were divided into 4 groups (n=7-8 each), and treated them for 4 additional weeks with vehicle (saline/polyethylene glycol/Tween 80, 90/5/5; 1 ml-kg^−1) Or OEA (5 mg-kg^−1, once daily, i.p.). In a separate experiment, obese Zucker rats were treated for 2 weeks with vehicle or OEA (5 mg-kg^−1, once daily, i.p.), while maintaining them on a regular rodent chow (RMH 2500, Prolab). Food intake and body weight were measured daily. At the end of the experiments, the animals were fasted overnight, and tissues and blood samples collected for biochemical analyses.
Chronic experiment: In a separate experiment, we treated obese Zucker rats for 2 weeks with vehicle (saline/polyethylene glycol/Tween-80, 90/5/5; 1 ml kg^−1, once daily, i.p.) or OEA (5 mg kg^−1, once daily, i.p.), while maintaining them on a regular rodent chow (RMH 2500, Prolab). We measured food intake and body weight daily. At the end of the experiments, the animals were fasted overnight, and tissues and blood samples collected for biochemical analyses.
Lipids were extracted from mouse liver and epidydimal adipose tissue (Bligh and Dyer, 1959) and measured triglycerides with a commercial kit (Sigma). Serum lipids and glucose were measured with an automated Synchron LX® system (Beckman-Coulter).

Assay [2] in a line: Food intake in vagotomized or capsaicin-treated rats, Example 3. In kind it is in vivo, rat. To be noted: rats; OEA 10, Wy-14643 40 mg kg^−1 i.p.
The nature of assay [3]: Operant responses for food. In kind it is in vivo, rat. To be noted: at a dose substantially higher than those required to produce hypophagia. From the text: Operant responses for food. Rats were trained to lever press for food on a fixed ratio 1 (FR1) schedule of reinforcement, while food-restricted at 20 g of chow per rat per day (Rodriguez de Fonseca, et al., Acta Pharmacol. Sin., 20:1109-1114 (1999)). Once stable responding was achieved, the animals were trained to acquire an FR5, time out 2-min schedule of food reinforcement and kept in limited access to food. When a stable baseline was obtained, the animals were used to test the effects of vehicle or OEA (1, 5 or 20 mg per kg) administered 15 min before lever presentation. Test duration was 60 min.

In the next assay the test system is Hepatocyte. Description: [14C]oleate oxidation to ketone bodies in hepatocytes. The conditions noted are these: 10 min incubation. Type of assay: cell-based, rat. From the text: OEA-like compounds and modulators can be used to modulate fat metabolism. Such compounds can also be assayed for their effect on fatty acid metabolism. The effect of the candidate compound on fatty acid metabolism can be measured by measurements of fatty acid oxidation in primary cultures of liver cells. Hepatocytes may be used to determine the rate of oleate oxidation to ketone bodies and carbon dioxide. Such cells can be isolated from adult rat liver by enzymatic digestion as described by Beynen et al. in Diabetes 28:828 (1979). Cells typically are cultured in suspension and incubated in Krebs-Henseleit's bicarbonate medium supplemented with bovine serum albumin and glucose as described by Guzman & Geelen, Biochem. J., 287:487 (1992). The protein concentration of the cultured cells can be determined and cells seeded in 2 ml media so that 4-6 mg protein per ml is present in the reaction mixture. […] Protein concentration can be determined using a Lowry assay. The rate of oleate conversion into ketone bodies may be expressed as nmol of oleate oxidized per hour per mg protein and may be determined using liquid scintillation counting. […]

The test system of the next assay is Cardiomyocyte. The assay is described as follows: [14C]oleate oxidation to CO2 in cardiomyocytes. In kind it is cell-based, rat. The conditions noted are these: 30 min incubation. From the text: This example illustrates the effect of OEA on fat metabolism and methods for studying the same. Oleoylethanolamide (OEA) decreases body weight not only by suppressing appetite, but also by possibly enhancing body fat catabolism. The effects of OEA on fatty acid oxidation in major body-fat burning tissues (soleus muscle, liver, cultured cardiac myocytes and astrocytes) was examined. […] In addition, OEA induces a significant mobilization of triacylglycerol stores from primary white adipose tissue cells. Table 4 details the methods and effects of OEA on fatty acid oxidation in these cells. Structure-activity relationship experiments provide evidence that the effect of OEA on skeletal muscle fatty acid oxidation is specific (FIG. 8).

[4] abbreviates: OEA 5 mg kg−1 i.p. once a day for 2 weeks.

For `CCCCCCCC/C=C\CCCCCCCC(=O)NCCO` [OEA, Z-2-hydroxyethyl octadec-9-enamide], the “expression of PPAR-α-regulated genes” value in the assay on PPAR-α-regulated genes (ileum) was “not and fail to induce expression”. Further, the “expression of PPAR-α-regulated genes (PPAR-α, FAT/CD36, FATP1)” value in the assay with PPAR-α-regulated genes (jejunum of wild-type mice, OEA or oleic acid 10, Wy-14643 30 mg kg^−1 i.p.) was “increased the expression”. Further, the “expression of genes not under the control of PPAR-α (I-FABP, PPAR-β/δ, PPAR-γ)” value in the assay with PPAR-α-regulated genes (jejunum, wild-type or PPAR-α-null mice) is “not affected”. In the assay with PPAR-α-regulated genes (jejunum, OEA 10, Wy-14643 30 mg kg^−1 i.p.), the “gene expression in mice deficient in PPAR-α” value is recorded as “did not stimulate gene expression”. For the same compound, the “transcription of PPAR-α-regulated genes” value in the assay with PPAR-α-regulated genes (liver of wild-type mice) is on record as “initiated transcription”. Moreover, in assay [1] (setting [4]), the Serum cholesterol is 66.14 ± 7.06 mg/dL, the Serum glucose came out at 221.25 ± 23.80 mg/dL and the Serum triglycerides worked out at 394.17 ± 49.40 mg/dL. In addition, the “food intake and body-weight gain” value in assay [1] (OEA 5 mg-kg^−1 once daily for 2 weeks i.p.) is “significant inhibition”. In addition, the “food intake after vagotomy or capsaicin treatment” value in assay [2] is “no effect”. For the same compound, the “operant responses for food” value in assay [3] is listed as “reduced”. The “Stimulatory effect of 10 μM OEA on [14C]oleate oxidation to ketone bodies” value in the assay on Hepatocyte was 21+−6% and 21 ± 6 (n = 4) %. The “Stimulatory effect of 10 μM OEA on [14C]oleate oxidation to CO2” value in the assay on Cardiomyocyte is given as 37 ± 9 (n = 3) %.
